According to PubChem BioAssay AID330 (DTP/NCI, 2004):
Values joined by “and” are separate entries in the source; they are usually repeats but may differ in a detail not shown here. Equal entries are not always repeated. Toxic doses and inconclusive results are not listed. The calls were made as follows: active = survival T/C of 150% or more; inactive = T/C below 125% in these data.

Test system: P388 leukemia ip, CD2F1 mice, survival T/C
Assay: NCI In Vivo Anticancer Drug Screen. Data for tumor model P388 Leukemia (intraperitoneal) in CD2F1 (CDF1) mice
Conditions: endpoint: median survival time, higher = longer survival
Outline: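 Mice carrying the transplanted tumor received test compound or vehicle. Survival was recorded in each group, and the value is the treated-group measurement divided by that of the vehicle-treated control group.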

Measured: T/C

COC1NC(=O)N(C(C)C)C1(C)C (stereo unspecified)
inactive: dose: 12.5 mg/kg/injection, schedule: Q01DX009 (ip), vehicle: saline 101 % of control | dose: 25.0 mg/kg/injection, schedule: Q01DX009 (ip), vehicle: saline 101 % of control | dose: 50.0 mg/kg/injection, schedule: Q01DX009 (ip), vehicle: saline 100 % of control and 97 % of control | dose: 200.0 mg/kg/injection, schedule: Q01DX009 (ip), vehicle: saline 107 % of control

c1ccc2c(c1)[nH]c1c2nc2ncccn21
inactive: dose: 50.0 mg/kg/injection, schedule: Q01DX005 (ip), vehicle: Klucel (hydroxypropylcellulose) (HPC) 106 % of control | dose: 100.0 mg/kg/injection, schedule: Q01DX005 (ip), vehicle: Klucel (hydroxypropylcellulose) (HPC) 106 % of control

C=CCCC(=O)CCCC(=O)O[C@@H]1[C@@H]2[C@H](CC1(C)C)[C@H](O)[C@@]13O[C@@H]1[C@H](O)[C@@]1(CO1)[C@@]23C
inactive: dose: 6.2 micrograms/kg/injection, schedule: Q01DX009 (ip), vehicle: saline + alcohol 98 % of control | dose: 6.3 micrograms/kg/injection, schedule: Q01DX009 (ip), vehicle: Klucel (hydroxypropylcellulose) (HPC) 110 % of control | dose: 12.5 micrograms/kg/injection, schedule: Q01DX009 (ip), vehicle: Klucel (hydroxypropylcellulose) (HPC) 110 % of control | dose: 12.5 micrograms/kg/injection, schedule: Q01DX009 (ip), vehicle: saline + alcohol 101 % of control | dose: 25.0 micrograms/kg/injection, schedule: Q01DX005 (ip), vehicle: Klucel (hydroxypropylcellulose) (HPC) 100 % of control | dose: 25.0 micrograms/kg/injection, schedule: Q01DX009 (ip), vehicle: Klucel (hydroxypropylcellulose) (HPC) 100 % of control | dose: 25.0 micrograms/kg/injection, schedule: Q01DX009 (ip), vehicle: saline + alcohol 98 % of control | dose: 50.0 micrograms/kg/injection, schedule: Q01DX005 (ip), vehicle: Klucel (hydroxypropylcellulose) (HPC) 101 % of control | dose: 50.0 micrograms/kg/injection, schedule: Q01DX009 (ip), vehicle: Klucel (hydroxypropylcellulose) (HPC) 98 % of control | dose: 50.0 micrograms/kg/injection, schedule: Q01DX009 (ip), vehicle: saline + alcohol 97 % of control | dose: 100.0 micrograms/kg/injection, schedule: Q01DX005 (ip), vehicle: Klucel (hydroxypropylcellulose) (HPC) 99 % of control | dose: 200.0 micrograms/kg/injection, schedule: Q01DX005 (ip), vehicle: Klucel (hydroxypropylcellulose) (HPC) 100 % of control | dose: 400.0 micrograms/kg/injection, schedule: Q01DX005 (ip), vehicle: Klucel (hydroxypropylcellulose) (HPC) 111 % of control

CC(=O)Nc1nc2c(=O)[nH]c(N)nc2n1C1OC(COC(C)=O)C(OC(C)=O)C1OC(C)=O (stereo unspecified)
inactive: dose: 50.0 mg/kg/injection, schedule: Q04DX003 (ip), vehicle: saline with Tween-80 96 % of control | dose: 100.0 mg/kg/injection, schedule: Q04DX003 (ip), vehicle: saline with Tween-80 100 % of control | dose: 200.0 mg/kg/injection, schedule: Q04DX003 (ip), vehicle: saline with Tween-80 105 % of control | dose: 400.0 mg/kg/injection, schedule: Q04DX003 (ip), vehicle: saline with Tween-80 102 % of control

c1ccc2sc(-c3ccncc3)nc2c1
inactive: dose: 50.0 mg/kg/injection, schedule: Q01DX009 (ip), vehicle: saline with Tween-80 102 % of control | dose: 100.0 mg/kg/injection, schedule: Q01DX009 (ip), vehicle: saline with Tween-80 99 % of control | dose: 200.0 mg/kg/injection, schedule: Q01DX009 (ip), vehicle: saline with Tween-80 108 % of control

CN(C)CCCn1ncc(Sc2cc([N+](=O)[O-])ccc2N)c(Cl)c1=O
inactive: dose: 15.0 mg/kg/injection, schedule: Q01DX005 (ip), vehicle: saline with Tween-80 95 % of control | dose: 30.0 mg/kg/injection, schedule: Q01DX005 (ip), vehicle: saline with Tween-80 94 % of control | dose: 60.0 mg/kg/injection, schedule: Q01DX005 (ip), vehicle: saline with Tween-80 99 % of control and 107 % of control and 94 % of control | dose: 120.0 mg/kg/injection, schedule: Q01DX005 (ip), vehicle: saline with Tween-80 93 % of control | dose: 240.0 mg/kg/injection, schedule: Q01DX005 (ip), vehicle: saline with Tween-80 89 % of control

O=Cc1c(-c2ccc(Cl)cc2)nc2n1CCS2
inactive: dose: 100.0 mg/kg/injection, schedule: Q04DX002 (ip), vehicle: Klucel (hydroxypropylcellulose) (HPC) 101 % of control | dose: 400.0 mg/kg/injection, schedule: Q04DX002 (ip), vehicle: Klucel (hydroxypropylcellulose) (HPC) 104 % of control

Cc1ccc(S(=O)(=O)C(c2ccccc2)C(Br)C(=O)c2ccccc2)cc1 (stereo unspecified)
inactive: dose: 100.0 mg/kg/injection, schedule: Q04DX003 (ip), vehicle: saline 87 % of control | dose: 200.0 mg/kg/injection, schedule: Q04DX003 (ip), vehicle: saline 88 % of control

Cn1c(=S)sc2ccc(S(=O)(=O)C(F)F)cc21
inactive: dose: 25.0 mg/kg/injection, schedule: Q01DX009 (ip), vehicle: Klucel (hydroxypropylcellulose) (HPC) 103 % of control | dose: 50.0 mg/kg/injection, schedule: Q01DX009 (ip), vehicle: Klucel (hydroxypropylcellulose) (HPC) 112 % of control | dose: 100.0 mg/kg/injection, schedule: Q01DX009 (ip), vehicle: Klucel (hydroxypropylcellulose) (HPC) 107 % of control | dose: 200.0 mg/kg/injection, schedule: Q01DX009 (ip), vehicle: Klucel (hydroxypropylcellulose) (HPC) 108 % of control

O=C(O)C(=O)O.O=C([O-])C(=O)O.O=C([O-])C(=O)O.[Fe+3].[K+]
inactive: dose: 30.0 mg/kg/injection, schedule: Q01DX005 (ip), vehicle: saline 100 % of control | dose: 60.0 mg/kg/injection, schedule: Q01DX005 (ip), vehicle: saline 99 % of control
